Measured values: PubChem BioAssay AID248 (DTP/NCI, 2004)
“And” between values parts separate entries of the source, which are not always exact repeats. Equal entries are not always repeated. Inconclusive results and toxic doses are left out. Cut-off read from the data, not from the text of the source: active = T/C of 150% or more; inactive = T/C below 125%.

Tested on: L1210 leukemia ip in BDF1 mice, survival T/C
Assay: NCI In Vivo Anticancer Drug Screen. Data for tumor model L1210 Leukemia (intraperitoneal) in B6D2F1 (BDF1) mice
Conditions: endpoint: mean survival time, higher = longer survival
How it was run: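 Mice bearing the transplanted tumor received compound or vehicle. Survival of the treated group was divided by that of the vehicle-treated control group to give the ratio.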

[1] = dose: 100.0 mg/kg/injection, schedule: Q01DX001 (ip), vehicle: carboxymethylcellulose (CMC)
[2] = dose: 200.0 mg/kg/injection, schedule: Q01DX001 (ip), vehicle: carboxymethylcellulose (CMC)
[3] = dose: 25.0 mg/kg/injection, schedule: Q01DX009 (ip), vehicle: Klucel (hydroxypropylcellulose) (HPC)
[4] = dose: 100.0 mg/kg/injection, schedule: Q04DX003 (ip), vehicle: Klucel (hydroxypropylcellulose) (HPC)
[5] = dose: 200.0 mg/kg/injection, schedule: Q04DX003 (ip), vehicle: Klucel (hydroxypropylcellulose) (HPC)
[6] = dose: 100.0 mg/kg/injection, schedule: Q01DX009 (ip), vehicle: Klucel (hydroxypropylcellulose) (HPC)
[7] = dose: 200.0 mg/kg/injection, schedule: Q01DX009 (ip), vehicle: Klucel (hydroxypropylcellulose) (HPC)
[8] = dose: 400.0 mg/kg/injection, schedule: Q04DX003 (ip), vehicle: Klucel (hydroxypropylcellulose) (HPC)
[9] = dose: 400.0 mg/kg/injection, schedule: Q01DX009 (ip), vehicle: Klucel (hydroxypropylcellulose) (HPC)
[10] = dose: 100.0 mg/kg/injection, schedule: Q04DX003 (ip), vehicle: saline with Tween-80
[11] = dose: 200.0 mg/kg/injection, schedule: Q04DX003 (ip), vehicle: saline with Tween-80
[12] = dose: 400.0 mg/kg/injection, schedule: Q04DX003 (ip), vehicle: saline with Tween-80

Measured: T/C

CC(=O)[C@H]1CC[C@H]2[C@@H]3CCC4=CC(=O)C=C[C@]4(C)[C@H]3C(=O)C[C@]12C
inactive: dose: 25.0 mg/kg/injection, schedule: Q01DX015 (sc), vehicle: steriod suspending solution 98 % of control | dose: 50.0 mg/kg/injection, schedule: Q01DX015 (sc), vehicle: steriod suspending solution 100 % of control | dose: 100.0 mg/kg/injection, schedule: Q01DX009 (sc), vehicle: steriod suspending solution 97 % of control | dose: 100.0 mg/kg/injection, schedule: Q01DX015 (sc), vehicle: steriod suspending solution 93 % of control | dose: 100.0 mg/kg/injection, schedule: Q04DX003 (ip), vehicle: steriod suspending solution 98 % of control | dose: 200.0 mg/kg/injection, schedule: Q01DX009 (sc), vehicle: steriod suspending solution 97 % of control | dose: 200.0 mg/kg/injection, schedule: Q01DX015 (sc), vehicle: steriod suspending solution 104 % of control and 107 % of control | dose: 200.0 mg/kg/injection, schedule: Q04DX003 (ip), vehicle: steriod suspending solution 101 % of control | dose: 400.0 mg/kg/injection, schedule: Q01DX009 (sc), vehicle: steriod suspending solution 100 % of control | dose: 400.0 mg/kg/injection, schedule: Q01DX015 (sc), vehicle: steriod suspending solution 104 % of control | dose: 400.0 mg/kg/injection, schedule: Q04DX003 (ip), vehicle: steriod suspending solution 112 % of control | dose: 800.0 mg/kg/injection, schedule: Q01DX015 (sc), vehicle: steriod suspending solution 104 % of control

O=C(/C(=C/c1ccc(F)cc1)c1ccccc1)c1ccc(O)cc1
inactive: [1] 92 % of control | [2] 110 % of control | dose: 400.0 mg/kg/injection, schedule: Q01DX001 (ip), vehicle: carboxymethylcellulose (CMC) 94 % of control

COc1ccc2c(c1OC)C1(CCN(C)C)CC(=O)CCC1C=C2 (configuration not stated)
inactive: dose: 3.12 mg/kg/injection, schedule: Q01DX009 (ip), vehicle: Klucel (hydroxypropylcellulose) (HPC) 103 % of control | dose: 6.25 mg/kg/injection, schedule: Q01DX009 (ip), vehicle: Klucel (hydroxypropylcellulose) (HPC) 95 % of control | dose: 12.5 mg/kg/injection, schedule: Q01DX009 (ip), vehicle: Klucel (hydroxypropylcellulose) (HPC) 98 % of control | [3] 86 % of control | [4] 98 % of control

Cc1ccc(S)c(C)c1
inactive: [4] 93 % of control | [5] 95 % of control

Nc1ccc(-c2ccc(Br)cc2)cc1
inactive: dose: 75.0 mg/kg/injection, schedule: Q01DX001 (ip), vehicle: carboxymethylcellulose (CMC) 101 % of control | dose: 150.0 mg/kg/injection, schedule: Q01DX001 (ip), vehicle: carboxymethylcellulose (CMC) 100 % of control

Brc1csnn1
inactive: dose: 50.0 mg/kg/injection, schedule: Q01DX001 (ip), vehicle: carboxymethylcellulose (CMC) 98 % of control | [1] 110 % of control | [2] 95 % of control

CN1CCCCC1CCN1c2ccccc2Sc2ccc(Cl)cc21 (configuration not stated)
inactive: dose: 3.12 mg/kg/injection, schedule: Q01DX009 (ip), vehicle: saline 96 % of control | dose: 6.25 mg/kg/injection, schedule: Q01DX009 (ip), vehicle: saline 97 % of control | dose: 12.5 mg/kg/injection, schedule: Q01DX009 (ip), vehicle: saline 100 % of control | dose: 25.0 mg/kg/injection, schedule: Q01DX009 (ip), vehicle: saline 97 % of control

CN1C(=O)CCS(=O)(=O)C1c1ccc(Cl)cc1 (configuration not stated)
inactive: [3] 104 % of control | dose: 25.0 mg/kg/injection, schedule: Q04DX003 (ip), vehicle: Klucel (hydroxypropylcellulose) (HPC) 94 % of control | dose: 50.0 mg/kg/injection, schedule: Q01DX009 (ip), vehicle: Klucel (hydroxypropylcellulose) (HPC) 103 % of control | dose: 50.0 mg/kg/injection, schedule: Q04DX003 (ip), vehicle: Klucel (hydroxypropylcellulose) (HPC) 101 % of control | [6] 101 % of control | [4] 101 % of control | [7] 92 % of control | [5] 97 % of control | [8] 99 % of control

CCC(C(C)C)C1NC1C(C)C1CCC2C3CC=C4CC(OC(C)=O)CCC4(C)C3CCC12C (configuration not stated)
inactive: dose: 100.0 mg/kg/injection, schedule: Q04DX003 (sc), vehicle: steriod suspending solution 105 % of control | dose: 200.0 mg/kg/injection, schedule: Q04DX003 (sc), vehicle: steriod suspending solution 103 % of control | dose: 400.0 mg/kg/injection, schedule: Q04DX003 (sc), vehicle: steriod suspending solution 97 % of control

CC12CCC(=O)C=C1CCC1C2C(=O)CC2(C)C1CCC2(O)C(=O)CSc1ncnc2nc[nH]c12 (configuration not stated)
inactive: dose: 100.0 mg/kg/injection, schedule: Q01DX001 (sc), vehicle: steriod suspending solution 103 % of control | dose: 200.0 mg/kg/injection, schedule: Q01DX001 (sc), vehicle: steriod suspending solution 106 % of control | dose: 400.0 mg/kg/injection, schedule: Q01DX001 (sc), vehicle: steriod suspending solution 112 % of control

COc1ccc(/C=C2\N=C(c3ccccc3)OC2=O)c(Cl)c1OC
inactive: dose: 50.0 mg/kg/injection, schedule: Q01DX001 (ip), vehicle: saline 97 % of control | dose: 100.0 mg/kg/injection, schedule: Q01DX001 (ip), vehicle: saline 97 % of control | dose: 200.0 mg/kg/injection, schedule: Q01DX001 (ip), vehicle: saline 100 % of control | dose: 400.0 mg/kg/injection, schedule: Q01DX001 (ip), vehicle: saline 94 % of control

C#CCCCCCCCCC(=O)NCC
inactive: [6] 100 % of control | [4] 95 % of control | [5] 93 % of control | [9] 104 % of control | [8] 108 % of control

OCCOc1c(Cl)cc(Cl)cc1Cl
inactive: dose: 50.0 mg/kg/injection, schedule: Q01DX009 (ip), vehicle: saline with Tween-80 100 % of control | dose: 100.0 mg/kg/injection, schedule: Q01DX009 (ip), vehicle: saline with Tween-80 94 % of control and 100 % of control | [10] 93 % of control | dose: 200.0 mg/kg/injection, schedule: Q01DX009 (ip), vehicle: saline with Tween-80 100 % of control | [11] 90 % of control | dose: 400.0 mg/kg/injection, schedule: Q01DX009 (ip), vehicle: saline with Tween-80 93 % of control | [12] 111 % of control

O=C(Nc1cccc(C(F)(F)F)c1)c1ccco1
inactive: [6] 93 % of control | dose: 100.0 mg/kg/injection, schedule: Q04DX002 (ip), vehicle: Klucel (hydroxypropylcellulose) (HPC) 106 % of control | [7] 96 % of control | dose: 200.0 mg/kg/injection, schedule: Q04DX002 (ip), vehicle: Klucel (hydroxypropylcellulose) (HPC) 95 % of control | [9] 109 % of control | dose: 400.0 mg/kg/injection, schedule: Q04DX002 (ip), vehicle: Klucel (hydroxypropylcellulose) (HPC) 104 % of control

O=C1c2ccccc2C2C(=O)c3ccccc3C12 (configuration not stated)
inactive: [10] 98 % of control | [11] 96 % of control | [12] 95 % of control

CCC(=O)Nc1cccc(OP(=O)(N(C)C)N(C)C)c1
inactive: dose: 100.0 mg/kg/injection, schedule: Q01DX001 (ip), vehicle: saline with Tween-80 96 % of control | dose: 200.0 mg/kg/injection, schedule: Q01DX001 (ip), vehicle: saline with Tween-80 102 % of control | dose: 400.0 mg/kg/injection, schedule: Q01DX001 (ip), vehicle: saline with Tween-80 88 % of control

OCC1OC(OCC2OC(OC3(CO)OC(CO)C(O)C3O)C(O)C(O)C2O)C(O)C(O)C1O (configuration not stated)
inactive: dose: 100.0 mg/kg/injection, schedule: Q04DX003 (ip), vehicle: saline 101 % of control | dose: 200.0 mg/kg/injection, schedule: Q04DX003 (ip), vehicle: saline 106 % of control | dose: 400.0 mg/kg/injection, schedule: Q04DX003 (ip), vehicle: saline 104 % of control
